Results as given in patent US6548518B2, “Methods of treating gastro-esophogeal reflux disease using (-) norcisapride in combination with proton pump inhibitors or H2 receptor antagonists” (Sepracor, Inc., priority 1999, dated 2003).

Experiments:
[1] = co-administration with ketoconazole; inhibition of metabolic elimination of cisapride; cited from earlier work
5-HT3 receptor = target: T1, 5-HT3 receptor (Mus musculus, UniProt P23979); assay: Radioligand binding to 5-HT3 receptor subtypes derived from N1E-115 cells (Cerep); conditions: Table 3; ratio of IC50 at 5-HT3 to IC50 at 5-HT4
T1 construct: host or cells: N1E-115 cells
T1 sequence (P23979 24-489): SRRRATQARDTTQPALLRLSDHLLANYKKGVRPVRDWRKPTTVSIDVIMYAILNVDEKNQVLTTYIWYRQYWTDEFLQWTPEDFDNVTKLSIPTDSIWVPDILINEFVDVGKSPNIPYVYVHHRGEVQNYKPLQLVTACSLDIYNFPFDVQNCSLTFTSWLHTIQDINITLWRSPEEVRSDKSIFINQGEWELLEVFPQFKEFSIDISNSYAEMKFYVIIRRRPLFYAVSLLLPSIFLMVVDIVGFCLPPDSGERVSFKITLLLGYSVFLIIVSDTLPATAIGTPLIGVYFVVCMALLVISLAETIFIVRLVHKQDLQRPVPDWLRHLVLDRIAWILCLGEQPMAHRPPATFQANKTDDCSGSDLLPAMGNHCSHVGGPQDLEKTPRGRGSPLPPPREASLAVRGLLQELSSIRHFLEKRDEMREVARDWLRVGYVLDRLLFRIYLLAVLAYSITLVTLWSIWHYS
Method: Following incubation with the appropriate ligands, the preparations were rapidly filtered under vacuum through GF/B glass fiber filters and washed with ice-cold buffer using a Brandel or Packard cell harvester.
Specific radioligand binding to the receptor was defined as the difference between total binding and nonspecific binding determined in the presence of an excess of unlabeled ligand. Results were expressed as a percent inhibition of specific binding obtained in the presence of the compounds.

SMILES	increase of the steady-state plasma levels [1] [fold]	5-HT3/5-HT4 Ratio (5-HT3 receptor)
COc1cc(N)c(Cl)cc1C(=O)N[C@H]1CCN(CCCOc2ccc(F)cc2)C[C@H]1OC (racemic) [(±) Cisapride, cis-4-amino-5-chloro-N-[1-[3-(4-fluorophenoxy)propyl]-3-methoxy-4-piperidinyl]-2-methoxybenzamide]	8	–
COc1cc(N)c(Cl)cc1C(=O)NC1CCNCC1OC (single isomer, unassigned; (-)) [(−) Norcisapride]	–	0.023
COc1cc(N)c(Cl)cc1C(=O)NC1CCNCC1OC (single isomer, unassigned; (+)) [(+) Norcisapride]	–	0.014
COc1cc(N)c(Cl)cc1C(=O)NC1CCNCC1OC (racemic) [(±) Norcisapride, 4-amino-5-chloro-N-(3-methoxy-4-piperidinyl)-2-methoxybenzamide]	–	0.012
